Laboratory results reported in US9096524B2, “Anthelmintic agents and their use” (Intervet International B.V., priority 2009, dated 2015).
Read-outs that look alike come from different tables or passages of the source.

System: A. galli (intestinal roundworm of chicken) larval stage 3; O. dentatum (nodular worm of swine) larval stages 3 and 4
Test: Activity against Ascaridia galli and Oesophagostomum dentatum larvae in vitro (minimum effective concentration)
Format: cell-based
[1] = in vitro, one or more of A. galli L3, O. dentatum L3, L4, threshold 1 μM, read-out: MEC (minimum effective concentration) against one or more of the tested nematodes
[2] = in vitro, one or more of A. galli L3, O. dentatum L3, L4, threshold 7 μM, read-out: MEC (minimum effective concentration) against one or more of the tested nematodes
[3] = in vitro, two or more of A. galli L3, O. dentatum L3, L4, threshold 1 μM, read-out: MEC (minimum effective concentration) against two or more of the tested nematodes
[4] = read-out: MEC (minimum effective concentration) against one or more of the tested nematodes, in vitro, one or more of A. galli L3, O. dentatum L3, L4, threshold 1 μM
[5] = read-out: MEC (minimum effective concentration) against one or more of the tested nematodes, in vitro, one or more of A. galli L3, O. dentatum L3, L4, threshold 7 μM
[6] = read-out: MEC (minimum effective concentration) against two or more of the tested nematodes, in vitro, two or more of A. galli L3, O. dentatum L3, L4, threshold 1 μM

Row | Compound | minimal effective concentration [1] | minimal effective concentration [3] | other results
1 | N#Cc1ccc(NC2CCN(C(=O)CCCC3CCN(c4ccc(C(F)(F)F)cc4)CC3)CC2)cc1C(F)(F)F [Example 156, 2-trifluoromethyl-4-(1-{4-[1-(4-trifluoromethyl-phenyl)-piperidin-4-yl]-butyryl}-piperidin-4-ylamino)-benzonitrile] | < 1 µM | < 1 µM | minimal effective concentration [2]: < 7 µM
2 | CC(C)(C)c1ccc(N2CCCN(CCCC(=O)N3CCC(Nc4ccc([N+](=O)[O-])c(C(F)(F)F)c4)CC3)CC2)cc1 [Example 163, 4-[4-(4-tert-butyl-phenyl)-[1,4]diazepan-1-yl]-1-[4-(4-nitro-3-trifluoromethyl-phenylamino)-piperidin-1-yl]-butan-1-one] |  |  | minimal effective concentration [4]: < 1 µM; minimal effective concentration [5]: < 7 µM; minimal effective concentration [6]: < 1 µM
3 | CC(C)(C)c1ccc(N2CCN(CCCC(=O)N3CC[C@@H](Nc4ccc([N+](=O)[O-])c(C(F)(F)F)c4)C3)CC2)cc1 [Example 168, 4-[4-(4-tert-butyl-phenyl)-piperazin-1-yl]-1-[(R)-3-(4-nitro-3-trifluoromethyl-phenylamino)-pyrrolidin-1-yl]-butan-1-one] |  |  | minimal effective concentration [4]: < 1 µM; minimal effective concentration [5]: < 7 µM; minimal effective concentration [6]: < 1 µM
4 | O=C(CCN1CCN(c2ccccc2)CC1)N1CCC(Nc2ccc([N+](=O)[O-])c(C(F)(F)F)c2)CC1 [Example 169] |  |  | minimal effective concentration [2]: < 7 µM
5 | O=C(CCN1CCN(c2ccccc2)CC1)N1CCC(Nc2ccc([N+](=O)[O-])c(C(F)(F)F)c2)CC1 [Example 171] | < 1 µM | < 1 µM | 
6 | O=C(COC1CCN(c2ccc([N+](=O)[O-])c(C(F)(F)F)c2)CC1)N1CCN(c2ccc(Cl)cc2)CC1 [Example 179] | < 1 µM |  | 
7 | N#Cc1ccc(N2CCN(C(=O)COC3CCN(c4ccc([N+](=O)[O-])c(C(F)(F)F)c4)CC3)CC2)cc1 [Example 180] | < 1 µM |  | 
8 | O=C(CCN1CCN(c2cccc(C(F)(F)F)c2)CC1)N1CCC(Nc2ccc([N+](=O)[O-])c(C(F)(F)F)c2)CC1 [Example 183] |  | < 1 µM | 
9 | O=C(CCN1CCN(c2cccc(OC(F)(F)F)c2)CC1)N1CCC(Nc2ccc([N+](=O)[O-])c(C(F)(F)F)c2)CC1 [Example 191] |  | < 1 µM | 
10 | O=C(CCN1CCC(Nc2ccc([N+](=O)[O-])c(C(F)(F)F)c2)CC1)N1CCN(c2ccc(Cl)cc2)CC1 [Example 199] | < 1 µM |  | 
11 | N#Cc1ccc(N2CCN(C(=O)CCN3CCC(Nc4ccc([N+](=O)[O-])c(C(F)(F)F)c4)CC3)CC2)cc1 [Example 200] | < 1 µM |  | 
12 | O=C(CC(=O)N1CCN(c2ccc(Cl)c(C(F)(F)F)c2)CC1)N1CCC(Nc2ccc([N+](=O)[O-])c(C(F)(F)F)c2)CC1 [Example 202] |  | < 1 µM | 
13 | CC(C)(C)c1ccc(N2CCN(C(=O)CC(=O)N3CCC(Nc4ccc([N+](=O)[O-])c(C(F)(F)F)c4)CC3)CC2)cc1 [Example 203] |  | < 1 µM | 
14 | O=C(CC(=O)N1CCN(c2cccc(OC(F)(F)F)c2)CC1)N1CCC(Nc2ccc([N+](=O)[O-])c(C(F)(F)F)c2)CC1 [Example 210] | < 1 µM |  | 
15 | O=C(CCN1CCC(c2cccc(C(F)(F)F)c2)CC1)N1CCC(Nc2ccc([N+](=O)[O-])c(C(F)(F)F)c2)CC1 [Example 212] | < 1 µM |  | 
16 | O=C(CCC1CCN(c2cccc(C(F)(F)F)c2)CC1)N1CCC(Nc2ccc([N+](=O)[O-])c(C(F)(F)F)c2)CC1 [Example 215] | < 1 µM | < 1 µM | 
17 | O=C(CCC1CCN(c2ccccc2)CC1)N1CCC(Nc2ccc([N+](=O)[O-])c(C(F)(F)F)c2)CC1 [Example 216] | < 1 µM | < 1 µM | 
18 | O=C(CCN1CCN(c2ccc(Cl)c(C(F)(F)F)c2)CC1)N1CCC(Oc2ccc([N+](=O)[O-])c(C(F)(F)F)c2)CC1 [Example 218] |  | < 1 µM | 
19 | CC(C)(C)c1ccc(N2CCN(CCC(=O)N3CCC(Oc4ccc([N+](=O)[O-])c(C(F)(F)F)c4)CC3)CC2)cc1 [Example 220] |  | < 1 µM | 
20 | O=C(CCN1CCN(c2cccc(OC(F)(F)F)c2)CC1)N1CCC(Oc2ccc([N+](=O)[O-])c(C(F)(F)F)c2)CC1 [Example 225] |  | < 1 µM | 
21 | O=C([C@@H]1CCC[C@H](C(=O)N2CCC(Nc3ccc([N+](=O)[O-])c(C(F)(F)F)c3)CC2)C1)N1CCN(c2ccccc2)CC1 [Example 227] |  | < 1 µM | 
22 | O=C(C1CCC[C@H](C(=O)N2CCN(c3ccccc3)CC2)C1)N1CCC(Oc2ccc([N+](=O)[O-])c(C(F)(F)F)c2)CC1 (stereo partly drawn) [Example 228] |  | < 1 µM | 
23 | O=C(CCN1CCN(C2CCCCC2)CC1)N1CCC(Nc2ccc([N+](=O)[O-])c(C(F)(F)F)c2)CC1 [Example 241] |  | < 1 µM | 
24 | Cc1ccc(N2CCN(CCS(=O)(=O)N3CCC(Nc4ccc([N+](=O)[O-])c(C(F)(F)F)c4)CC3)CC2)cc1 [Example 243] |  | < 1 µM | 
25 | O=[N+]([O-])c1ccc(NC2CCN(S(=O)(=O)CCN3CCN(c4ccc(C(F)(F)F)cc4)CC3)CC2)cc1C(F)(F)F [Example 245] |  | < 1 µM | 
26 | O=[N+]([O-])c1ccc(NC2CCN(S(=O)(=O)CCN3CCN(C4CCCCC4)CC3)CC2)cc1C(F)(F)F [Example 248] |  | < 1 µM | 

Row | Compound | minimal effective concentration [1] | minimal effective concentration [3] | other results
27 | COc1ccc(N2CCN(CCC(=O)N3CCC(Nc4ccc([N+](=O)[O-])c(C(F)(F)F)c4)CC3)CC2)cc1 [Example 254] |  | < 1 µM | 
28 | O=C(CCN1CCN(c2ccc(C(F)(F)F)cn2)CC1)N1CCC(Nc2ccc([N+](=O)[O-])c(C(F)(F)F)c2)CC1 [Example 255] |  | < 1 µM | 
29 | CC(C)(C)c1ccc(N2CCN(CCCC(=O)N3CCC(Oc4ccc([N+](=O)[O-])c(C(F)(F)F)c4)CC3)CC2)cc1 [Example 258] | < 1 µM |  | 
30 | O=C(CCCN1CCN(c2ccc(Cl)cc2)CC1)N1CCC(Oc2ccc([N+](=O)[O-])c(C(F)(F)F)c2)CC1 [Example 259] | < 1 µM |  | 
31 | O=C(CCCN1CCN(c2ccc(F)cc2)CC1)N1CCC(Oc2ccc([N+](=O)[O-])c(C(F)(F)F)c2)CC1 [Example 261] | < 1 µM |  | 
32 | O=C(CCCN1CCN(c2ccc(C(F)(F)F)cc2)CC1)N1CCC(Nc2ccc(C(F)(F)F)cc2)CC1 [Example 269] |  | < 1 µM | 
33 | COc1ccc(NC2CCN(C(=O)CCCN3CCN(c4ccc(C(F)(F)F)cc4)CC3)CC2)cc1 [Example 270] |  | < 1 µM | 
34 | O=C(CCCN1CCN(c2ccc(C(F)(F)F)cc2)CC1)N1CCC(Nc2ccc(Cl)c(Cl)c2)CC1 [Example 272] |  |  | minimal effective concentration [6]: < 1 µM
35 | O=C(CCCN1CCN(c2ccc(C(F)(F)F)cc2)CC1)N1CCC(Nc2ccc(Cl)cc2)CC1 [Example 273] |  |  | minimal effective concentration [6]: < 1 µM
36 | O=C(CCN1CCN(c2ccc(C(F)(F)F)cc2)CC1)N1CCC(Nc2cccc(C(F)(F)F)c2)CC1 [Example 276] |  | < 1 µM | 
37 | O=C(CCN1CCN(c2ccc(C(F)(F)F)cc2)CC1)N1CCC(Nc2ccc(Cl)cc2)CC1 [Example 282] |  |  | minimal effective concentration [6]: < 1 µM
38 | N#Cc1ccc(NC2CCN(C(=O)CCN3CCN(c4ccc(C(F)(F)F)cc4)CC3)CC2)cc1 [Example 283] |  | < 1 µM | 
39 | O=C(CCN1CCN(c2ccc(C(F)(F)F)cc2)CC1)N1CC[C@H](Nc2ccc([N+](=O)[O-])c(C(F)(F)F)c2)C1 [Example 285] | < 1 µM |  | 
40 | COc1ccc(N2CCN(CCC(=O)N3CC[C@H](Nc4ccc([N+](=O)[O-])c(C(F)(F)F)c4)C3)CC2)cc1 [Example 289] | < 1 µM | < 1 µM | 
41 | CCCCC(=O)N1CCC(OCC(=O)N2CCC(Nc3ccc([N+](=O)[O-])c(C(F)(F)F)c3)CC2)CC1 [Example 291] | < 1 µM |  | 
42 | CC(C)(C)c1ccc(N2CCN(CCC(=O)N3CCC(Nc4ccc(S(=O)(=O)c5ccc(F)cc5)cc4)CC3)CC2)cc1 [Example 294] |  | < 1 µM | 
43 | C[S+]([O-])c1ccc(NC2CCN(C(=O)CCN3CCN(c4ccc(C(C)(C)C)cc4)CC3)CC2)cc1C(F)(F)F (stereo not drawn) [Example 299] |  | < 1 µM | 
44 | CSc1ccc(NC2CCN(C(=O)CCCN3CCN(c4ccc(C(C)(C)C)cc4)CC3)CC2)cc1C(F)(F)F [Example 317] |  |  | minimal effective concentration [6]: < 1 µM
45 | CC(C)(C)c1ccc(N2CCN(CCC(=O)N3CCC(Nc4ccc(C(F)(F)F)cn4)CC3)CC2)cc1 [Example 329] | < 1 µM |  | 
46 | CCOC(=O)c1ccc(NC2CCN(C(=O)CCCN3CCN(c4ccc(Cl)cc4)CC3)CC2)cc1 [Example 338] | < 1 µM |  | 
47 | CC(C)(C)c1ccc(N2CCN(CCC(=O)N3CCC(Nc4ccc(S(C)(=O)=O)c(C(F)(F)F)c4)CC3)CC2)cc1 [Example 340] | < 1 µM |  | 
48 | CS(=O)(=O)c1ccc(NC2CCN(C(=O)CCN3CCN(c4ccc(Cl)cc4)CC3)CC2)cc1C(F)(F)F [Example 341] | < 1 µM | < 1 µM | 
49 | CS(=O)(=O)c1ccc(NC2CCN(C(=O)CCCN3CCN(c4ccc(Cl)cc4)CC3)CC2)cc1C(F)(F)F [Example 343] | < 1 µM |  | 
50 | CN(C)S(=O)(=O)c1ccc(NC2CCN(C(=O)CCN3CCN(c4ccc(Cl)cc4)CC3)CC2)cc1C(F)(F)F [Example 346] |  | < 1 µM | 
51 | CN(C)S(=O)(=O)c1ccc(NC2CCN(C(=O)CCCN3CCN(c4ccc(Cl)cc4)CC3)CC2)cc1C(F)(F)F [Example 349] |  |  | minimal effective concentration [2]: < 7 µM
52 | CC(C)(C)c1ccc(N2CCN(CCC(=O)N3CCC(Nc4cccc(C#N)c4)CC3)CC2)cc1 [Example 351] | < 1 µM |  | 
